Laboratory results published in US9581594B2, “Porphyrin—modified antimicrobial peptides for application as indicators of microbial targets” (priority 2013, dated 2017).
Bridge positions count the residues as written; N and C are the ends. Ends that are not written are not given here.

What was measured:
E. coli = test: Microtiter plate absorbance/fluorescence analysis of interaction with bacterial cells (E. coli); format: cell-based
Description: (§1) C1TPP and C1TPP-modified antimicrobial peptides were evaluated in a microtiter plate format using a Tecan XSafire monochromator-based microplate reader. Absorbance measurements were collected between 380 and 800 nm at 2 nm resolution. Fluorescence measurements were collected at 2 nm resolution for emission between 550 and 800 nm with excitation at 415 nm and for excitation between 385 and 619 nm with emission at 730 nm.
(§2) The microtiter plate format described above was utilized for analysis of interactions between the porphyrin-AMP constructs and bacterial cells, specifically, E. coli and B. globigii. The bacterial cells utilized were collected at mid-log phase growth and rinsed with water to remove growth media. They were then resuspended in water at approximately 3.5×10^7 cfu/mL. Analyses looked at changes in fluorescence and absorbance for fixed cell concentrations with varying tracer concentrations as well as for fixed tracer concentrations with varying cell concentrations. FIGS. 3A and 3B present data for the interaction between C1TPP and the two cell types, with absorbance (A) and fluorescence (B) spectra for C1TPP in water (black, 10% DMSO) and in the presence of E. coli (dashes) and B. globigii (dots) at 1.8×10^6 cfu/mL.

[1] = format: physicochemical; conditions: for solubility with addition of 10% DMSO: 10% dimethylsulfoxide final concentration; for solubility in water: water / aqueous solution
Text: It is still insufficient to resolve spectrophotometric characteristics with […] as evidenced by the low absorbance intensity and indistinct bands in both absorbance and fluorescence characteristics (FIGS. 1A and 1B). […] In FIGS. 2A-2D, the more traditional Soret and Q-bands in the absorbance spectra are evident, and the expected two peak fluorescence emission spectra are observed. […] Each of the constructs has unique peak positions as well as varying extinction coefficients for the Soret and Q-bands. Fluorescence emission is also uniquely varying amongst the tracers. These factors tend to indicate the formation of unique complexes providing the potential desired for these materials.

B. globigii = test: Microtiter plate absorbance/fluorescence analysis of interaction with bacterial cells (B. globigii); format: cell-based
Description: as §1, §2

Row | Compound | changes in fluorescence on interaction with cells (E. coli; E. coli cells) | changes in absorbance or fluorescence characteristics on interaction with cells (E. coli; E. coli cells, range of concentrations evaluated) | solubility with addition of 10% DMSO [1] | solubility in water [1] | changes in fluorescence on interaction with cells (B. globigii; B. globigii cells) | changes in absorbance or fluorescence characteristics on interaction with cells (B. globigii; B. globigii cells, range of concentrations evaluated) | peak/trough pair in the Soret region of the absorbance difference spectrum (E. coli; in the presence of E. coli cells) | peak/trough pair in the Soret region of the absorbance difference spectrum (B. globigii; in the presence of B. globigii cells)
1 | O=C(O)c1ccc(-c2c3nc(c(-c4ccccc4)c4ccc([nH]4)c(-c4ccccc4)c4nc(c(-c5ccccc5)c5ccc2[nH]5)C=C4)C=C3)cc1 [C1TPP, 5-mono(4-carboxyphenyl)-10,15,20-triphenyl porphine] | overall quench | did not produce concentration dependent changes | increased somewhat | minimally soluble | overall quench | did not produce concentration dependent changes | – | –
2 | C1-Bac: C1TPP covalently attached to Bactenecin (RLCRIVVIRVCR; cyclized via disulfide bridge) (disulfide 3-11 (inferred); also: C1TPP covalently attached, site not given here) | noted for only the highest concentrations of tracer used | – | sufficient to maintain the solubility | precipitated from aqueous solution | noted for only the highest concentrations of tracer used | – | 476/432 | 476/432
